Assay [1] concerns the target c-Kit (Homo sapiens, UniProt P10721). The assay is described as follows: c-Kit biochemical assay (per US 2007/0032519). In outline:
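Biochemical kinase inhibition run per US 2007/0032519; values reported as binned IC50 ranges (0.0001–1 μM, 1–10 μM, 10–200 μM).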

Assay [2] addresses T1, BA/F3-FLT3-ITD + F691L cells (Homo sapiens, UniProt P36888, F691L, cells depend on it, form not given).
T1 sequence (P36888 1-993 F691L): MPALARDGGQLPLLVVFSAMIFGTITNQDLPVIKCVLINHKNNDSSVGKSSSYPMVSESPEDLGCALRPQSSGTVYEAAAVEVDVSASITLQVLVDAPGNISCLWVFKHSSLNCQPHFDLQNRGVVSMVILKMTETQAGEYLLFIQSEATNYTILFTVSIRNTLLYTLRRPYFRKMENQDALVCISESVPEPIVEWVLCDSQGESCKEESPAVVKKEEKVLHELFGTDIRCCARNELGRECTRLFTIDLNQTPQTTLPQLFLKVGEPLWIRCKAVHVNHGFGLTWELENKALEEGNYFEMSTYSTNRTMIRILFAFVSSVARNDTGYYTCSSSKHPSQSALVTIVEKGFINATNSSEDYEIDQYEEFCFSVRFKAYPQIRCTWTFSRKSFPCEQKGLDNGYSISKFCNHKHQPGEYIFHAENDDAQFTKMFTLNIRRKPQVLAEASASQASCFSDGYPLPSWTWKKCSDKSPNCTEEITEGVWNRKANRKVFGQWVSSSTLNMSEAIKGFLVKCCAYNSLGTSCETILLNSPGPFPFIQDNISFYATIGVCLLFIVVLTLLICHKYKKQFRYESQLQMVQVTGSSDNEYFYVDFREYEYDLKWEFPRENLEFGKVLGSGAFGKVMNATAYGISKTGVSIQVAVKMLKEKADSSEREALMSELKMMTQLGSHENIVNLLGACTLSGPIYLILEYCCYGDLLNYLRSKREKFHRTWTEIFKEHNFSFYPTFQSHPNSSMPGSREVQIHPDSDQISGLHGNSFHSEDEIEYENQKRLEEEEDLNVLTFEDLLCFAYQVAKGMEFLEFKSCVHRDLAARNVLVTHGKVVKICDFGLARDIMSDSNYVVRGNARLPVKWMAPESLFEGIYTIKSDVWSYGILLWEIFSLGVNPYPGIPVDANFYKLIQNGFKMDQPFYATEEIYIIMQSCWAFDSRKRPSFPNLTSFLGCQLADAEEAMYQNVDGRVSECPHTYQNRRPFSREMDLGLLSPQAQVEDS
The experiment in a line: BA/F3-FLT3-ITD + F691L cell proliferation assay (CellTiter-Glo). As to conditions: BaF3 FLT3 ITD/F691L cells; read-out: Cell Activity (IC50 μM) BaF3_FLT3_ITD/F691L. The assay is classed as cell-based, murine. The procedure, abridged: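 Three-day growth assay, IC50 from CellTiter-Glo ATP luminescence vs concentration. Compounds at 10 to 0.0046 μM (1:3 steps, final DMSO 0.2%) on 1×10^4 cells/well. Cells are IL-3-independent BA/F3 lines engineered to express full-length FLT3-ITD with the D835Y or the F691L mutation.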
A general note: ATP-based viability assays read luminescence as a measure of living cells.

Each structure is given as a SMILES string.

For orientation: IC50 means the concentration at which inhibition is half-maximal. A high value points to lower potency.

c-Kit, sequence (P10721 26-976): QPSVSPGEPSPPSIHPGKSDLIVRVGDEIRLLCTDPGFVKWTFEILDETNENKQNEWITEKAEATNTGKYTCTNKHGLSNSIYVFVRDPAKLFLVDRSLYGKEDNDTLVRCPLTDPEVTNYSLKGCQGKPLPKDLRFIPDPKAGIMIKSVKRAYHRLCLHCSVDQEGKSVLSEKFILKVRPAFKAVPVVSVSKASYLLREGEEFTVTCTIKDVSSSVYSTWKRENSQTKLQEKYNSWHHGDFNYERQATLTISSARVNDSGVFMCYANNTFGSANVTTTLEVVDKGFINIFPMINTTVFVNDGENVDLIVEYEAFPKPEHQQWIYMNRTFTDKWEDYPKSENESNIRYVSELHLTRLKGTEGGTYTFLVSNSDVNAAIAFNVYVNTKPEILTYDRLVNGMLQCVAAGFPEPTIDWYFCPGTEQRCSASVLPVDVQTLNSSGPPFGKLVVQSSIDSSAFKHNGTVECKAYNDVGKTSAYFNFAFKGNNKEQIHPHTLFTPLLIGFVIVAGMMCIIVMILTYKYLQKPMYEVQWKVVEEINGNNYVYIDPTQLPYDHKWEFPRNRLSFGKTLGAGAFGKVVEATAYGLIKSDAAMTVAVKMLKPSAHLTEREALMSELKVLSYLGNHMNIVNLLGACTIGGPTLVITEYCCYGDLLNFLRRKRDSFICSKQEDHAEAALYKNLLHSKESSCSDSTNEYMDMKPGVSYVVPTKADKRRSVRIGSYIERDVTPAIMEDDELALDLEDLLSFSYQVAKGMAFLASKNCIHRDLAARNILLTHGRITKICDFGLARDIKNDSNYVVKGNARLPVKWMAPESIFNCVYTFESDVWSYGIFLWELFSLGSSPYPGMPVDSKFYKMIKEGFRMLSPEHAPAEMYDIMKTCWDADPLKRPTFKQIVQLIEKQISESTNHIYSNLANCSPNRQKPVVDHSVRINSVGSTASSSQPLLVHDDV

For `CC(C)(C)n1cnc2ccc(-c3c[nH]c4ncc(-c5cccc(NS(C)(=O)=O)c5)nc34)cc21` [P-097, N-[3-[7-(3-tert-butylbenzimidazol-5-yl)-5H-pyrrolo[2,3-b]pyrazin-2-yl]phenyl]methanesulfonamide], the IC50 in assay [1] lay in the range of 0.0001 to 1 µM. Besides, the GI50 in assay [2] was 0.0001 to 1 µM.

With `COc1cnc2[nH]cc(-c3ccc4ncn(-c5cccc(F)c5)c4c3)c2c1` [P-128, 1-(3-fluorophenyl)-6-(5-methoxy-1H-pyrrolo[2,3-b]pyridin-3-yl)benzimidazole], the IC50 in assay [1] was 10 to 200 µM. Further, the GI50 in assay [2] lay within 0.0001 to 1 µM.

Values taken from patent publication US10160755B2 (Plexxikon Inc., priority 2015, dated 2018).
